Measured values taken from article PMC9065877, “Safety, tolerability and pharmacokinetics of the oligomer modulator anle138b with exposure levels sufficient for therapeutic efficacy in a murine Parkinson model: A randomised, double-blind, placebo-controlled phase 1a trial” (EBioMedicine, 2022).
Like-named read-outs stand apart in the source and are kept apart here.

Tests used:
[1] = Food effect study (FES), 150 mg single dose fed vs fasted, pharmacokinetics in healthy subjects, plasma; assay type: in vivo, human; details: for Cmax / AUC(0-t): po, 150 mg, FES 150 mg single oral dose, geometric mean (CV%); for AUC(0-t): read-out: AUC(0-24)
Procedure: This was a single-centre, double-blind, randomised, placebo-controlled single ascending dose (SAD) and multiple ascending dose (MAD) study of anle138b in doses of up to 300 mg per day in healthy subjects. In addition, the effect of food (FES) on the PK of anle138b in healthy subjects was examined using single doses of 150 mg. Participants were recruited from Quotient Sciences (Nottingham, UK) volunteer database.
This dose was administered either i) after a standard FDA-approved high-fat breakfast or ii) in the fasted state i.e., fasted from all food and drink (except water) for a minimum of 8 h prior to dosing. In total, one cohort of 12 subjects was randomised in a 1:1 ratio to 2 treatment sequences (fed→fasted) or (fasted→fed). A minimum washout of at least 5 half-lives of anle138b between each dose was assured.
Secondary outcome measures were the oral PK of single (SAD) and multiple (MAD) ascending doses of anle138b in the fasted state as well as the effect of co-administration with food on the PK of anle138b. To this end PK blood samples were taken at day 1 (and for MAD day 7) pre-dose and at 0·5, 1, 1·5, 2, 3, 4, 6, 8, 10, 12, 16 and 20 h post-dose, at days 2 to 6 pre-dose only (MAD) and 24, 30, 36 and 48 h post final dose. Analysis of anle138b in plasma was done at Aptuit, an Evotec company, in Verona, Italy. Time point of last quantifiable data was seen to increase with an increase in dose as follows: SAD: from the 50mg dose (subjects ranged between 8-24h) to the 300mg dose (subjects ranged between 36-48h). MAD: from the 100mg dose (subjects ranged between 8-36h) to the 300mg dose (subjects ranged between 20-48h). In FES, subjects ranged between 24-48h.
The study was exploratory and no formal sample size calculation was made. Based on experience from previous studies of similar design, eight subjects per cohort were enrolled for parts 1 (SAD) and 2 (MAD) and a total of twelve subjects for part 3 (FES). Populations and analysis sets were determined for safety and PK data after database lock using the criteria defined in the reporting and analysis plan. The safety population and safety analysis set for SAD and MAD were defined after database lock but prior to study unblinding. Statistical analysis and production of summary tables, figures and listings for all safety data (AEs, vital signs, ECGs and safety laboratory assessments) including changes from baseline as required in this study were performed using the statistical package SAS (v9·4). Additional statistics was provided for PK-related data including coefficient of variation (CV%), geometric mean, geometric CV%, and the number n of subjects that were included in the natural logarithmic transformation). In SAD and MAD, dose proportionality was assessed. Formal statistical analysis was performed on the log-transformed PK parameters AUC(0-last), AUC(0-inf), and Cmax for SAD (day 1), and AUC(0-tau) and Cmax for MAD (day 1 and day 7) to assess dose proportionality using the following power model: loge (AUC or Cmax) = µ + βx loge (dose). The estimate obtained for β is a measure of dose proportionality. The estimate of β together with its 90% confidence interval (CI) (βl, βu) was used to quantify the degree of non-proportionality. In MAD, formal statistical analysis was performed on the PK parameters AUC(0-tau) and Cmax to assess dose accumulation. Log-transformed AUC(0-tau) and Cmax was subjected to a mixed-effects model with treatment (dose level), day (day 1 or 7) and treatment-by-day interaction as fixed effects and subject as a random effect. The adjusted means obtained from the model, including differences for each comparison of interest and the associated 90% CIs, was back-transformed on the log scale to obtain adjusted geometric means, adjusted geometric mean ratios (GMRs) and 90% CIs of the ratio. The GMRs and 90% CIs were provided for each treatment and overall, i.e., day 7/day 1. […]

[2] = Oral pharmacokinetics, overall statements across SAD, MAD and FES parts; assay type: in vivo, human
Procedure: As a safety precaution, sentinel dosing was performed for all SAD and MAD cohorts. In SAD, subjects received a single dose of anle138b or placebo after fasting from all food and drink (except water) for a minimum of 8 h prior to dosing. The dosing in the four SAD-cohorts were 50 mg, 100 mg, 200 mg and 300 mg of free anle138b equivalent, respectively. In the MAD part, participants received anle138b or placebo once daily (QD) for 7 days after fasting from all food and drink (except water) for a minimum of 8 h prior to dosing. The dosing in the three MAD-cohorts was 100 mg, 200 mg and 300 mg of free anle138b equivalent, respectively. Post dosing mouth and hand checks were conducted to ensure the capsules were swallowed. In-study decisions regarding continuation and dose escalation were made by the safety advisory committee (SAC) comprising the principal investigator, the sponsor's medical monitor and a PK expert. For dose escalation to proceed, data needed to be available from a minimum of 6 subjects per cohort with completed per protocol safety and PK assessments up to 48 h after dosing to ensure at least 4 subjects had received active IMP. The decision to proceed to the next higher dose level was based on safety, tolerability and available PK data to 48 h post-dose. The following data were required: Adverse events, vital signs, safety laboratory, ECG, physical examinations, plasma concentrations of anle138b with interim PK parameter estimations (Tmax, Cmax, AUC(0-24), AUC(0-tau), AUC(0-last) and T½, where applicable). Data were provided to the SAC in accordance with Quotient Sciences’ standard operating procedure (SOP) on interim dose decision-making and dose escalation. […]
Secondary outcome measures were the oral PK of single (SAD) and multiple (MAD) ascending doses of anle138b in the fasted state as well as the effect of co-administration with food on the PK of anle138b. […] Time point of last quantifiable data was seen to increase with an increase in dose as follows: SAD: from the 50mg dose (subjects ranged between 8-24h) to the 300mg dose (subjects ranged between 36-48h). […]

[3] = human, plasma, fed (high-fat breakfast)

Brc1cccc(-c2cc(-c3ccc4c(c3)OCO4)n[nH]2)c1 [anle138b, 3-(1,3-benzodioxol-5-yl)-5-(3-bromophenyl)-1H-pyrazole]
Time point of last quantifiable data (range of subjects) ([1]; FES 150 mg): 24 to 48 h
Effect of food on Cmax ([1]; FES 150 mg, fed vs fasted): decreased by about half
Food effect on AUC ([1]; FES 150 mg, fed vs fasted): clinically insignificant
bioavailability ([1]; human, plasma, oral, FES 150 mg, 90% CI: 61%, 88%, read-out: Dose bioavailable in the fed state compared to the fasted state): ~74%
Cmax ([1]; human, plasma, fasted): 442 ng/mL
AUC(0-t) ([1]; human, plasma, fasted): 896 ng·h/mL
Cmax [1, 3]: 196 ng/mL
AUC(0-t) [1, 3]: 641 ng·h/mL
half-life ([2]; human, plasma, oral, authors' conclusion from SAD data, read-out: true T½ of anle138b in human plasma): ≥ 10 h
practical elimination half-time ([2]; overall PK data): ~12 h
Bioavailability (in words) ([2]; overall PK data, fasted and fed conditions): good bioavailability
